What was measured:
JAK3 = biological target: T1, JAK3 (Homo sapiens, UniProt P52333); assay: JAK3 biochemical assay (ADP-GLO Kinase Assay); details: for IC50: B*: testing performed in a first testing facility, read-out: JAK3 IC50 (nM) Relative, B*; for JAKs/HPK1 IC50 Ratio, B*: ratio of JAK3 IC50 to HPK1 IC50, first testing facility
T1 construct: purchased Thermo fisher PV3855
Method in brief: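 Human JAK3 (0.78 ng) with 0.2 μg/μL Poly(E4Y1) and 4 μM ATP in 40 mM Tris pH 7.5, 20 mM MgCl2, 0.1 mg/ml BSA, 50 μM DTT, 1% DMSO; 60 min at 25 °C. ADP formed read by ADP-Glo luminescence. 10-dose 3-fold series from 10 μM; IC50 by three-parameter logistic fit.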

HPK1 = HPK1 (Homo sapiens, UniProt Q92918); assay: HPK1 biochemical assay (ADP-GLO Kinase Assay); details: B*: testing performed in a first testing facility; read-out: HPK1 IC50 (nM) Relative, B*
Method in brief: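 HPK1 (0.6 ng/μL final) activity was followed with MBP substrate and 10 μM ATP in Tris pH 7.5/MgCl2/BSA/DTT buffer, measured by ADP-Glo luminescence. Compounds were tested as 3-fold dilutions from 10 μM. IC50 came from a three-parameter logistic fit, with inhibition normalised to high/low controls.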

T1 sequence (P52333 781-1124 limits assumed): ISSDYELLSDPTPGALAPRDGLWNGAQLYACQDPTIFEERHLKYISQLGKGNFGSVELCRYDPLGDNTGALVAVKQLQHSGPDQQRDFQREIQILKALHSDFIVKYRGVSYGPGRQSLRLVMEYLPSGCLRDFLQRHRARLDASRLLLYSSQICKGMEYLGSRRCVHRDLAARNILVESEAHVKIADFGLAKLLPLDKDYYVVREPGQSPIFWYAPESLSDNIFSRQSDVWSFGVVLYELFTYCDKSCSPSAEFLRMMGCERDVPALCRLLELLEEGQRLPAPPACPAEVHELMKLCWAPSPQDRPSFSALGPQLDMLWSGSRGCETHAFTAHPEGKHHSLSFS
HPK1, sequence (Q92918 whole entry): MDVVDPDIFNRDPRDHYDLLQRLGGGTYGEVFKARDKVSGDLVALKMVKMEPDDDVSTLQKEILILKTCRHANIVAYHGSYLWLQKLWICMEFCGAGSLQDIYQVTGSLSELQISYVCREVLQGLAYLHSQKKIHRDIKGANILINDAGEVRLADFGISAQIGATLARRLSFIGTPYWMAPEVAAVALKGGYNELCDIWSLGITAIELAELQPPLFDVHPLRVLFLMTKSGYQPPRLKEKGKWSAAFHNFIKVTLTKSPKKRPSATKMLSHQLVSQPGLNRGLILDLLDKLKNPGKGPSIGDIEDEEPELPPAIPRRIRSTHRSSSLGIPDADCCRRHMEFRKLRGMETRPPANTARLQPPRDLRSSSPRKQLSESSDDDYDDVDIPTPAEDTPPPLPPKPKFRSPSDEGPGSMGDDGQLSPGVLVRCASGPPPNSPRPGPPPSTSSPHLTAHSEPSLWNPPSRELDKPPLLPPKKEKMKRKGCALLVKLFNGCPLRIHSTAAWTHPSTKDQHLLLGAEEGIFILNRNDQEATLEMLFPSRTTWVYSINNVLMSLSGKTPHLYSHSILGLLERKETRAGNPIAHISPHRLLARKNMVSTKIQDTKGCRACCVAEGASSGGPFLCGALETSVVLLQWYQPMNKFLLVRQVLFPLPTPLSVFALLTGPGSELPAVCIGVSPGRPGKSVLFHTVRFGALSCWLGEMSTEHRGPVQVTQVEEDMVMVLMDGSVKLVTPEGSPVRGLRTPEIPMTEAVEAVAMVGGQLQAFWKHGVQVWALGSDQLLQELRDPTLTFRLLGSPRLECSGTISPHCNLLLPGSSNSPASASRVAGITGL

IC50 (JAK3) [nM] | JAKs/HPK1 IC50 Ratio, B* (JAK3) | IC50 (HPK1) [nM] | Structure (SMILES)
≤ 100 | 29 | ≤ 100 | CN1CCc2cc(F)c(Nc3ncc(Cl)c(N4CC(C)(CC(=O)O)c5ccccc54)n3)cc2C1 (stereo not drawn) [Example 156]
100 to 500 | 176 | ≤ 100 | CCN1CCc2cc(OC)c(Nc3ncc(Cl)c(N4CC(C)(CC(=O)O)c5ccccc54)n3)cc2C1 (stereo not drawn) [Example 157, 2-(1-(5-Chloro-2-((2-ethyl-6-methoxy-1,2,3,4-tetrahydroisoquinolin-7-yl)amino)pyrimidin-4-yl)-3-methylindolin-3-yl)acetic acid]
100 to 500 | 192 | ≤ 100 | COc1cc2c(cc1Nc1ncc(Cl)c(N3CC(C)(CC(=O)O)c4ccccc43)n1)CN(C(C)C)CC2 (stereo not drawn) [Example 158, 2-(1-(5-Chloro-2-((2-isopropyl-6-methoxy-1,2,3,4-tetrahydroisoquinolin-7-yl)amino)pyrimidin-4-yl)-3-methylindolin-3-yl)acetic acid]
≤ 100 | 71 | ≤ 100 | COc1cc2c(cc1Nc1ncc(Cl)c(N3CC(C)(CC(=O)O)c4ccccc43)n1)CN(C)C2 (stereo not drawn) [Example 159, 2-(1-(5-Chloro-2-((6-methoxy-2-methylisoindolin-5-yl)amino)pyrimidin-4-yl)-3-methylindolin-3-yl)acetic acid]
≤ 100 | 97 | ≤ 100 | COc1cc2c(cc1Nc1ncc(Cl)c(N3CC(C)(CC(=O)O)c4ccccc43)n1)CNCC2 (stereo not drawn) [Example 160, 2-(1-(5-Chloro-2-((6-methoxy-1,2,3,4-tetrahydroisoquinolin-7-yl)amino)pyrimidin-4-yl)-3-methylindolin-3-yl)acetic acid methanesulfonic acid]
500 to 1000 | 510 | ≤ 100 | COc1cc2c(cc1Nc1ncc(Cl)c(-c3cn(CC(=O)O)c4ccccc34)n1)CN(C)CC2 [Example 161]
> 1000 | 415 | ≤ 100 | COc1cc2c(cc1Nc1ncc(Cl)c(-c3nn(CC(=O)O)c4ccccc34)n1)CN(C)CC2 [Example 162, 2-(3-(5-Chloro-2-((6-methoxy-2-methyl-1,2,3,4-tetrahydroisoquinolin-7-yl)amino)pyrimidin-4-yl)-1H-indazol-1-yl)acetic acid]
> 1000 | 456 | ≤ 100 | COc1cc2c(cc1Nc1nccc(N3CC(C(=O)O)c4ccccc43)n1)CN(C)CC2 (stereo not drawn) [Example 163, 1-(2-((6-Methoxy-2-methyl-1,2,3,4-tetrahydroisoquinolin-7-yl)amino)pyrimidin-4-yl)indoline-3-carboxylic acid]
500 to 1000 | 306 | ≤ 100 | COc1cc2c(cc1Nc1ncc3cc(C#N)n(-c4ccccc4)c3n1)CN(C)CC2 [Example 164, 2-((6-Methoxy-2-methyl-1,2,3,4-tetrahydroisoquinolin-7-yl)amino)-7-phenyl-7H-pyrrolo[2,3-d]pyrimidine-6-carbonitrile]
> 1000 | 995 | ≤ 100 | COc1cc2c(cc1Nc1ncc(Cl)c(N3CC(C(=O)O)C4(CCCCC4)C3)n1)CN(C)CC2 (stereo not drawn) [Example 167, 2-(5-Chloro-2-((6-methoxy-2-methyl-1,2,3,4-tetrahydroisoquinolin-7-yl)amino)pyrimidin-4-yl)-2-azaspiro[4.5]decane-4-carboxylic acid]
> 1000 | 1482 | ≤ 100 | COc1cc2c(cc1Nc1ncc(Cl)c(N3CC(C(=O)O)C4(CCCC4)C3)n1)CN(C)CC2 (stereo not drawn) [Example 169, 2-(5-Chloro-2-((6-methoxy-2-methyl-1,2,3,4-tetrahydroisoquinolin-7-yl)amino)pyrimidin-4-yl)-2-azaspiro[4.4]nonane-4-carboxylic acid]

— patent US12612424B2, “HPK1 inhibitors and uses thereof” (Regor Pharmaceuticals, Inc., priority 2019, dated 2026)
